These results are taken from patent US11066414B2, “Cot modulators and methods of use thereof” (Gilead Sciences, Inc., priority 2015, dated 2021).

Human Cot, sequence (P41279 30-397): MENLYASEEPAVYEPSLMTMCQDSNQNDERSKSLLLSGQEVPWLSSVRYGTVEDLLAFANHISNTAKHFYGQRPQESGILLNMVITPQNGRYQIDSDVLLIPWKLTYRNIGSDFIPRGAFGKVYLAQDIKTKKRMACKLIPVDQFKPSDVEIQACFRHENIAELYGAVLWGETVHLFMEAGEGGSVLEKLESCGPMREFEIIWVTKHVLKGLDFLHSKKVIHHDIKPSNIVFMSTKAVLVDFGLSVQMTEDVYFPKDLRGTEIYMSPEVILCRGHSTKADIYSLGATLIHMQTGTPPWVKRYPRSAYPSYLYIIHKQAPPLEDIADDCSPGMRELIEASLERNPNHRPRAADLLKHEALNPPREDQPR

The first experiment deals with TNFα. The experiment in a line: Cot Monocyte TNFα Cell Based Assay. Particulars: Homo sapiens, Monocyte, read-out: EC50 TNF, LPS-stimulated human monocytes, TNFα.
For orientation: EC50 means the concentration at which the effect is half-maximal. With `CC(C)n1cc([C@@H](Nc2cc(Cl)c3ncc(C#N)c(Nc4ccc(F)c(Cl)c4)c3c2)c2ccc3c(c2)CNCC3)nn1` [Example 50, (S)-8-chloro-4-((3-chloro-4-fluorophenyl)amino)-6-(((1-isopropyl-1H-1,2,3-triazol-4-yl)(1,2,3,4-tetrahydroisoquinolin-7-yl)methyl)amino)quinoline-3-carbonitrile], the EC50 was determined as 3530 nM.

Turning to `CC(C)(C)N1CCC(n2cc([C@@H](Nc3cc(Cl)c4ncc(C#N)c(Nc5ccc(F)c(Cl)c5)c4c3)c3ccc4c(c3)NCC4)nn2)CC1` [Example 51, (S)-6-(((1-(1-(tert-butyl)piperidin-4-yl)-1H-1,2,3-triazol-4-yl)(indolin-6-yl)methyl)amino)-8-chloro-4-((3-chloro-4-fluorophenyl)amino)quinoline-3-carbonitrile], the concentration giving a half-maximal response (EC50) was found to be 1560 nM.

The experiment is the same for the next values; noted with them: read-out: EC50 TNF; LPS-stimulated human monocytes, TNFα TR-FRET.
On to “6-(((S)-(1-((1R,2R)-2- (difluoromethyl)cyclopropyl)- 1H-1,2,3-triazol-4-yl)(6-fluoro- 2-methylpyridin- 3-yl)methyl)amino)-4- [Example 834]”, for which the EC50 is 68 nM.

A further experiment has as its target Human Cot (Homo sapiens (Human), UniProt P41279). The experiment in a line: High Throughput Cot Biochemical Assay. Particulars: IC50 HTRF, Cot HTRF (TR-FRET KinEASE) biochemical assay, 400 μM ATP. In general terms: TR-FRET usually uses a lanthanide donor and a delayed reading to cut background.
For orientation: IC50 means the concentration that gives 50% inhibition. `C[C@@H](CF)n1cc([C@@H](Nc2cc(Cl)c3ncc(C#N)c(NCC(C)(C)C)c3c2)c2cccc3ncccc23)nn1` [Example 803, 8-chloro-6-(((S)-(1-((S)-1-fluoropropan-2-yl)-1H-1,2,3-triazol-4-yl)(quinolin-5-yl)methyl)amino)-4-(neopentylamino)quinoline-3-carbonitrile] displayed an IC50 of 7 nM.

Compound `CC(C)(CNc1c(C#N)cnc2c(C#N)cc(N[C@H](c3cn(C4(C(F)F)CC4)nn3)c3ccc(F)c4ncccc34)cc12)C(F)(F)F` [Example 815, (S)-6-(((1-{1-(difluoromethyl)-cyclopropyl)-1H-1,2,3-triazol-4-yl)(8-fluoroquinolin-5-yl)methyl)amino)-4-((3,3,3-trifluoro-2,2-dimethylpropyl)amino)quinoline-3,8-dicarbonitrile] had an IC50 of 3 nM.

For `CC(C)(CNc1c(C#N)cnc2c(C#N)cc(N[C@H](c3cn(C45CC(C4)C5)nn3)c3ccc(F)c4ncccc34)cc12)C(F)(F)F` [Example 816, (S)-6-(((1-(bicyclo[1.1.1]pentan-1-yl)-1H-1,2,3-triazol-4-yl)(8-fluoroquinolin-5-yl)methyl)amino)-4-((3,3,3-trifluoro-2,2-dimethylpropyl)amino)quinoline-3,8-dicarbonitrile], the half-maximal inhibitory concentration (IC50) came to 1 nM.

`CC(C)(C)CNc1c(C#N)cnc2c(C#N)cc(N[C@H](c3cn(C4(C(F)(F)F)CC4)nn3)c3csc4cnccc34)cc12` [Example 855, (S)-4-(neopentylamino)-6-((thieno[2,3-c]pyridin-3-yl(1-(1-(trifluoro-methyl)cyclopropyl)-1H-1,2,3-triazol-4-yl)methyl)-amino)quinoline-3,8-dicarbonitrile] had an IC50 of 2 nM.

Compound `COc1c([C@@H](Nc2cc(C#N)c3ncc(C#N)c(NCC(C)(C)C)c3c2)c2ccc(F)nc2C)nnn1C1CC1` [Example 859, (S)-6-(((1-cyclopropyl-5-methoxy-1H-1,2,3-triazol-4-yl)(6-fluoro-2-methylpyridin-3-yl)methyl)amino)-4-(neopentylamino)quinoline-3,8-dicarbonitrile] returned an IC50 of 2 nM.

Turning to `Cc1nc(F)ccc1[C@H](Nc1cc(C#N)c2ncc(C#N)c(NCC(C)(C)C)c2c1)c1cn(C(CF)CF)nn1` [Example 869, (S)-6-(((1-(1,3-difluoropropan-2-yl)-1H-1,2,3-triazol-4-yl)(6-fluoro-2-methylpyridin-3-yl)methyl)amino)-4-(neopentylamino)quinoline-3,8-dicarbonitrile], the IC50 is 2 nM.

Compound `Cn1ccc2c([C@H](Nc3cc(C#N)c4ncc(C#N)c(NCC(C)(C)C)c4c3)c3cn(C4(C(F)F)CC4)nn3)ccnc21` [Example 873, (S)-6-(((1-(1-(difluoromethyl)cyclopropyl)-1H-1,2,3-triazol-4-yl)(1-methyl-1H-pyrrolo[2,3-b]pyridin-4-yl)methyl)amino)-4-(neopentylamino)quinoline-3,8-dicarbonitrile] gave an IC50 of 5 nM.

Take `Cc1nc(F)ccc1[C@H](Nc1cc(C#N)c2ncc(C#N)c(NCC(C)(C)C)c2c1)c1nnn(C)c1F` [Example 906, (S)-6-(((5-fluoro-1-methyl-1H-1,2,3-triazol-4-yl)(6-fluoro-2-methylpyridin-3-yl)methyl)amino)-4-(neopentylamino)quinoline-3,8-dicarbonitrile]: the IC50 was determined as 4 nM.

Turning to `Cc1nc(F)ccc1[C@H](Nc1cc(Cl)c2ncc(C#N)c(NCC(C)(C)C)c2c1)c1nnn(C2(C)CC2)c1F` [Example 947, (S)-8-chloro-6-(((5-fluoro-1-(1-methylcyclopropyl)-1H-1,2,3-triazol-4-yl)(6-fluoro-2-methyl-pyridin-3-yl)methyl)amino)-4-(neopentylamino)quinoline-3-carbonitrile], the 50% inhibitory concentration (IC50) is 3 nM.

Compound `Cc1nc(F)ccc1[C@H](Nc1cc(Cl)c2ncc(C#N)c(NCC(C)(C)C)c2c1)c1nnn(C23CC(C2)C3)c1F` [Example 951, (S)-6-(((1-(bicyclo[1.1.1]pentan-1-yl)-5-fluoro-1H-1,2,3-triazol-4-yl)(6-fluoro-2-methylpyridin-3-yl)methyl)amino)-8-chloro-4-(neopentylamino)quinoline-3-carbonitrile] yielded an IC50 of 9 nM.

Regarding `Cc1nc(F)ccc1[C@H](Nc1cc(Cl)c2ncc(C#N)c(NCC(C)(C)C(F)(F)F)c2c1)c1nnn(C2CC2)c1F` [Example 958, (S)-8-chloro-6-(((1-cyclopropyl-5-fluoro-1H-1,2,3-triazol-4-yl)(6-fluoro-2-methylpyridin-3-yl)methyl)amino)-4-((3,3,3-trifluoro-2,2-dimethylpropyl)amino)quinoline-3-carbonitrile], the IC50 is 2 nM.

The same experiment, now with this note: IC50 HTRF, Cot HTRF (TR-FRET) biochemical assay.
In turn, `CC(C)n1cc([C@@H](Nc2cc(Cl)c3ncc(C#N)c(Nc4ccc(F)c(Cl)c4)c3c2)c2ccc3c(c2)CNCC3)nn1` [Example 50, (S)-8-chloro-4-((3-chloro-4-fluorophenyl)amino)-6-(((1-isopropyl-1H-1,2,3-triazol-4-yl)(1,2,3,4-tetrahydroisoquinolin-7-yl)methyl)amino)quinoline-3-carbonitrile] gave a half-maximal inhibitory concentration (IC50) of 70 nM.

`CC(C)(C)N1CCC(n2cc([C@@H](Nc3cc(Cl)c4ncc(C#N)c(Nc5ccc(F)c(Cl)c5)c4c3)c3ccc4c(c3)NCC4)nn2)CC1` [Example 51, (S)-6-(((1-(1-(tert-butyl)piperidin-4-yl)-1H-1,2,3-triazol-4-yl)(indolin-6-yl)methyl)amino)-8-chloro-4-((3-chloro-4-fluorophenyl)amino)quinoline-3-carbonitrile] came in with an IC50 of 55 nM.

The compound `Cc1nc(F)ccc1[C@H](Nc1cc(C#N)c2ncc(C#N)c(NCC(C)(C)C)c2c1)c1cn(C23CC(C2)C3)nn1` [Example 649, (S)-6-(((1-(bicyclo[1.1.1]pentan-1-yl)-1H-1,2,3-triazol-4-yl)(6-fluoro-2-methylpyridin-3-yl)methyl)amino)-4-(neopentylamino)quinoline-3,8-dicarbonitrile] returned an IC50 of 2 nM.

`CC(C)(C)CNc1c(C#N)cnc2c(Cl)cc(N[C@H](c3cn(C4(C(F)F)CC4)nn3)c3ccc(F)c4ncccc34)cc12` [Example 653, (S)-8-chloro-6-(((1-(1-(difluoromethyl)cyclopropyl)-1H-1,2,3-triazol-4-yl)(8-fluoroquinolin-5-yl)methyl)amino)-4-(neopentylamino)quinoline-3-carbonitrile]: half-maximal inhibition (IC50) required 4 nM.

Consider `Cc1nc(F)ccc1[C@H](Nc1cc(Cl)c2ncc(C#N)c(NCC(C)(C)C)c2c1)c1nnn(C2CC2)c1C#N` [Example 686, (S)-8-chloro-6-(((5-cyano-1-cyclopropyl-1H-1,2,3-triazol-4-yl)(6-fluoro-2-methylpyridin-3-yl)methyl)amino)-4-(neopentylamino)quinoline-3-carbonitrile], for which the IC50 is 4 nM.

`Cn1ccc2c([C@H](Nc3cc(Cl)c4ncc(C#N)c(NCC(C)(C)C(F)(F)F)c4c3)c3cn(C4(C5CC5)CC4)nn3)cccc2c1=O` [Example 783, (S)-6-(((1-([1,1′-bi(cyclopropan)]-1-yl)-1H-1,2,3-triazol-4-yl)(2-methyl-1-oxo-1,2-dihydroisoquinolin-5-yl)methyl)amino)-8-chloro-4-((3,3,3-trifluoro-2,2-dimethylpropyl)amino)quinoline-3-carbonitrile] registered an IC50 of 2 nM.

Regarding `Cn1ccc2c([C@H](Nc3cc(Cl)c4ncc(C#N)c(NCC(C)(C)C(F)(F)F)c4c3)c3cn(C45CC(C4)C5)nn3)cccc2c1=O` [Example 785, (S)-6-(((1-(bicyclo[1.1.1]pentan-1-yl)-1H-1,2,3-triazol-4-yl)(2-methyl-1-oxo-1,2-dihydroisoquinolin-5-yl)methyl)amino)-8-chloro-4-((3,3,3-trifluoro-2,2-dimethylpropyl)amino)quinoline-3-carbonitrile], the IC50 came to 2 nM.

Take `Cn1c(=O)ccc2c([C@H](Nc3cc(Cl)c4ncc(C#N)c(NCC(C)(C)C)c4c3)c3cn(C45CC(C4)C5)nn3)cccc21` [Example 786, (S)-6-(((1-(bicyclo[1.1.1]pentan-1-yl)-1H-1,2,3-triazol-4-yl)(1-methyl-2-oxo-1,2-dihydroquinolin-5-yl)methyl)amino)-8-chloro-4-(neopentylamino)quinoline-3-carbonitrile]: 5 nM corresponded to half-maximal inhibition (IC50).

For the compound `CC1(n2cc([C@@H](Nc3cc(Cl)c4ncc(C#N)c(NCC(C)(C)C(F)(F)F)c4c3)c3cccc4ncccc34)nn2)CC1` [Example 797, (S)-8-chloro-6-(((1-(1-methylcyclopropyl)-1H-1,2,3-triazol-4-yl)(quinolin-5-yl)methyl)amino)-4-((3,3,3-trifluoro-2,2-dimethylpropyl)amino)quinoline-3-carbonitrile], the IC50 was 3 nM.

Staying with this experiment, now noted: read-out: IC50 HTRF; Cot HTRF (TR-FRET KinEASE) biochemical assay, 400 μM ATP.
As to “6-(((S)-(1-((1R,2R)-2- (difluoromethyl)cyclopropyl)- 1H-1,2,3-triazol-4-yl)(6-fluoro- 2-methylpyridin- 3-yl)methyl)amino)-4- [Example 834]”, the IC50 was determined as 5 nM.

As to `Cc1nc(F)ccc1[C@H](Nc1cc(C#N)c2ncc(C#N)c(NCC(C)(C)C)c2c1)c1nnn(C2(C3CC3)CC2)c1F` [Example 865], the IC50 amounted to 4 nM.

The same experiment, now with this note: read-out: IC50 HTRF; Cot HTRF (TR-FRET) biochemical assay.
With `CC(C)(C)CNc1c(C#N)cnc2c(C#N)cc(N[C@H](c3cn(C4(C5CC5)CC4)nn3)c3cccc4ncccc34)cc12` [Example 696], the concentration for half-maximal inhibition (IC50) amounted to 2 nM.

In the case of `Cc1ncsc1[C@H](Nc1cc(Cl)c2ncc(C#N)c(NCC(C)(C)C)c2c1)c1cn(C2(C(F)(F)F)CC2)nn1` [Example 701, (R)-8-chloro-6-(((4-methylthiazol-5-yl)(1-(1-(trifluoromethyl)cyclopropyl)-1H-1,2,3-triazol-4-yl)methyl)airiino)-4-(neopentylamino)quinoline-3-carbonitrile], the IC50 was determined as 10 nM.
